Reference: patent US5185338A, “Medicament for treating cerebral insufficiency diseases, novel 2-(1-piperazinyl)-4-phenylcycloalkanopyrimidine derivatives, and process for the production thereof” (Dainippon Pharmaceutical Co., Ltd., priority 1989, dated 1993)

Assays:
Assay type in all cases: in vivo, mice (Std-ddY strain)
[1] = test system: scopolamine-induced hypermotility; assay: Antagonistic effect on scopolamine-induced hypermotility; conditions: Mus musculus, po, orally, scopolamine hydrobromide 1 mg/kg i.p., complete antagonism to motility level of non-dosed animals=100%, read-out: Inhibitory ratio (% antagonism of scopolamine-induced hypermotility)
Description: Antagonistic effect on scopolamine-induced hypermotility:
A test compound was orally administered to each mouse, and 90 minutes after the administration, each one test animal was placed within a test cage (25×35×30 cm). After 30 minutes, scopolamine hydrobromide (1 mg/kg) was intraperitoneally administered to the mice and then the motility was measured with Animex activity meter for 30 minutes. The effect of test compounds was expressed as % antagonism (complete antagonism to the motility level of non-dosed animals=100%).

[2] = test system: reserpine-induced hypothermia; assay: Anti-reserpine effect (reserpine-induced hypothermia); conditions: 100 mg/kg orally; reserpine 5 mg/kg s.c.; rectal temperature at 4 hours; complete inhibition=100%
Description: A group of 5 male mice (Std-ddY strain, 22-25 g) was used for examining the antagonistic effect of the test compounds on reserpine-induced hypothermia, which is known as a screening method for the antidepressant drug.
Reserpine (5 mg/kg) was subcutaneously administered to the mice and further a test compound was orally administered thereto. Four hours after the administration, rectal temperature of the mice was measured. The effect of the test compounds was estimated by % inhibition (complete inhibition to the hypothermia by reserpine in non-dosed animals=100%).

[3] = test system: brain serotonin metabolite, 5-hydroxyindole-3-acetic acid (5-HIAA); assay: Increasing effect on concentration of brain serotonin metabolite (5-HIAA); conditions: Mus musculus, 2 h, two hours after treatment, 5-HIAA level of non-dosed animals=100%
Excerpt: Increasing effect on concentration of brain serotonin metabolite:
A group of 5 male mice (Std-ddY strain, 25-30 g) was used for examining effect of the test compounds on concentration of a brain serotonin metabolite, 5-hydroxyindole-3-acetic acid (5-HIAA).
Mice were killed by decapitation two hours after the treatment with the test compounds. Brains were quickly taken out, homogenized in 1N formic acid-acetone solution, and centrifuged in a refrigerated ultracentrifuge. The supernatant was evaporated by blowing with N2 gas, and then, the residue was again dissolved in 0.01N acetic acid, and served for determining 5-HIAA concentration by high performance liquid chromatography with electrochemical detection. The effect of the test compounds on 5-HIAA concentration was shown as % of control (5-HIAA level of non-dosed animals=100%).

[4] = test system: scopolamine-induced deficit of spontaneous alternation behavior; assay: Improving effect on scopolamine-induced deficit of spontaneous alternation behavior (T-maze); conditions: scopolamine hydrobromide 1 mg/kg, non-dosed mice=100%
Excerpt: Improving effect on scopolamine-induced deficit of spontaneous alternation behavior:
A group of 15-25 male mice (Std-ddY strain, 22-28 g) was used for evaluating effect of the test compounds on scopolamine-induced deficit of spontaneous alternation in a T-maze, which is a known animal model of memory impairment due to hypofunction of the cholinergic nervous system. The T-maze used consists of a stem and two arms which are 25 cm long, 5 cm wide and 10 cm high. The first 10 cm of the stem and last 10 cm of each arm are divided by sliding doors into start and goal boxes.
A test compound and scopolamine hydrobromide (1 mg/kg) were intraperitoneally administered to each mouse, and after 30 minutes a test of spontaneous alternation task in the T-maze was continuously repeated for 8 trials. Commonly, naive mice alternate each (right and left) goal box in turn, but scopolamine-treated animals tend to enter the same goal box repeatedly. The effect of the test compounds was expressed as % improvement (complete improvement to the alternation level of non-dosed mice=100%).

[5] = test system: cycloheximide-induced amnesia of passive avoidance response; assay: Improving effect on cycloheximide-induced amnesia of passive avoidance response; conditions: cycloheximide 60 mg/kg s.c., retention trial at 24 hours, non-dosed animals=100%
Excerpt: Improving effect on cycloheximide-induced amnesia of passive avoidance response:
Anti-amnesic effect of the test compounds was examined using mice given cycloheximide which is a known amnesia-inducing agent.
A group of 15-20 male mice (Std-ddY strain, 27-33 g) was subjected to training and retention trials for a passive avoidance task in a step-down apparatus (30×30×50 cm) with a grid floor and a wooden platform (4×4×4 cm) in a center of the floor. In the training trial, each mouse was first placed on the platform, and when the mouse stepped down on the grid floor, an electric shock (1 Hz, 0.5 sec, 60 VDC) was delivered to the feet for 15 seconds. Immediately after the training trial, cycloheximide (60 mg/kg, s.c.) and a test compound (i.p.) were administered. The retention trial was carried out 24 hours thereafter, and the time from placing again each mouse on the platform until stepping down on the grid floor (step-down latency) was measured. The step-down latency in the retention trial was markedly shortened by treatment of cycloheximide (amnesia). The effect of test compounds was assessed by % improvement (complete improvement to the latency level of non-dosed animals=100%).

| Structure (SMILES) | inhibition in vivo at 30 mg/kg [1] [%] | also measured |
| --- | --- | --- |
| COc1ccc(-c2nc(N3CCN(C)CC3)nc3c2CCC3)cc1 [Ex. 23] | 52.4 | – |
| O=C(c1ccco1)N1CCN(c2nc3c(c(-c4ccc(F)cc4)n2)CCC3)CC1 [Ex. 45, 2-[4-(2-furoyl)-1-piperazinyl]-4-(4-fluorophenyl)-6,7-dihydro-5H-cyclopentapyrimidine] | 60.4 | – |
| CCCN1CCN(c2nc3c(c(-c4ccc(F)cc4)n2)CCC3)CC1 [Ex. 13, 2-(4-n-propyl-1-piperazinyl)-4-(4-fluorophenyl)-6,7-dihydro-5H-cyclopentapyrimidine] | 97.6 | – |
| CCN1CCN(c2nc3c(c(-c4ccc(Cl)cc4)n2)CCCC3)CC1 [Ex. 33] | 42.3 | – |
| Fc1ccc(-c2nc(N3CCN(Cc4ccccc4)CC3)nc3c2CCC3)cc1 [Ex. 19] | – | inhibition in vivo at 3 mg/kg [1]: 64.4% |
| CCN1CCN(c2nc3c(c(-c4ccccc4)n2)CCCCCC3)CC1 [Ex. 17] | 72.5 | – |
| CCN1CCN(c2nc3c(c(-c4ccccc4)n2)CCCC3)CC1 [Ex. 26] | 59.6 | Inhibitory ratio (% inhibition of reserpine-induced hypothermia) [2]: 100% |
| OCCN1CCN(c2nc3c(c(-c4ccccc4)n2)CCCC3)CC1 [Ex. 27] | 42 | response vs control in vivo at 100 mg/kg [3]: 131%; Inhibitory ratio (% inhibition of reserpine-induced hypothermia) [2]: 46% |
| OCCN1CCN(c2nc3c(c(-c4ccc(F)cc4)n2)CCC3)CC1 [Ex. 6] | 64.5 | response vs control in vivo at 100 mg/kg [3]: 119% |
| c1ccc(-c2nc(N3CCNCC3)nc3c2CCC3)cc1 [Ex. 3, 2-(1-Piperazinyl)-4-phenyl-6,7-dihydro-5H-cyclopentapyrimidine] | – | inhibition in vivo at 3 mg/kg [1]: 68%; Improvement of scopolamine-induced deficit of spontaneous alternation ([4]; 2.0 mg/kg i.p.): 45.8%; Improvement of cycloheximide-induced amnesia (step-down latency) ([5]; 0.5 mg/kg i.p.): 34.4%; Improvement of cycloheximide-induced amnesia (step-down latency) ([5]; 10.0 mg/kg i.p.): 52.1% |
| CCN1CCN(c2nc3c(c(-c4ccccc4)n2)CCCCC3)CC1 [Ex. 16] | 54.2 | – |
| CCN1CCN(c2nc3c(c(-c4ccc(F)cc4)n2)CC(C)CC3)CC1 (stereo not shown) [Ex. 42] | 71 | – |
| Fc1ccc(-c2nc(N3CCNCC3)nc3c2CCCC3)cc1 [Ex. 14, 2-(1-piperazinyl)-4-(4-fluoro-phenyl)-5,6,7,8-tetrahydroquinazoline] | – | inhibition in vivo at 3 mg/kg [1]: 55.2%; Improvement of scopolamine-induced deficit of spontaneous alternation ([4]; 1.0 mg/kg i.p.): 40.7%; Improvement of cycloheximide-induced amnesia (step-down latency) ([5]; 2.0 mg/kg i.p.): 52.5%; response vs control in vivo at 100 mg/kg [3]: 154%; Inhibitory ratio (% inhibition of reserpine-induced hypothermia) [2]: 100% |
| OCCN1CCN(c2nc3c(c(-c4ccc(F)cc4)n2)CCCC3)CC1 [Ex. 30] | 75.7 | response vs control in vivo at 100 mg/kg [3]: 137%; Inhibitory ratio (% inhibition of reserpine-induced hypothermia) [2]: 67% |
| Fc1ccc(-c2nc(N3CCN(Cc4ccccc4)CC3)nc3c2CCCCC3)cc1 [Ex. 38] | 81.6 | – |
| CN1CCN(c2nc3c(c(-c4ccc(Cl)cc4)n2)CCCC3)CC1 [Ex. 32] | 62.6 | – |
| CN1CCN(c2nc3c(c(-c4ccc(F)cc4)n2)CCC3)CC1 [Ex. 4] | – | inhibition in vivo at 10 mg/kg [1]: 66%; response vs control in vivo at 100 mg/kg [3]: 122% |

| Structure (SMILES) | inhibition in vivo at 30 mg/kg [1] [%] | also measured |
| --- | --- | --- |
| Fc1ccc(-c2nc(N3CCN(C4CCCC4)CC3)nc3c2CCC3)cc1 [Ex. 12] | 80.9 | – |
| c1ccc(CN2CCN(c3nc4c(c(-c5ccccc5)n3)CCCCC4)CC2)cc1 [Ex. 37] | 62.9 | – |
| CCN1CCN(c2nc3c(c(-c4ccc(F)cc4)n2)CCCCC3)CC1 [Ex. 8] | – | inhibition in vivo at 10 mg/kg [1]: 80% |
| CCN1CCN(c2nc3c(c(-c4ccc(F)cc4)n2)CCCC3)CC1 [Ex. 29] | 59.1 | response vs control in vivo at 100 mg/kg [3]: 149% |
| CC1CCc2nc(N3CCN(CCO)CC3)nc(-c3ccc(F)cc3)c2C1 (stereo not shown) [Ex. 43] | 64.2 | – |
| OCCN1CCN(c2nc3c(c(-c4ccc(Cl)cc4)n2)CCCC3)CC1 [Ex. 34] | 50.2 | – |
| CCN1CCN(c2nc3c(c(-c4ccc(OC)cc4)n2)CCC3)CC1 [Ex. 24] | 72.5 | – |
| CCN1CCN(c2nc3c(c(-c4ccc(F)cc4)n2)CCC3)CC1 [Ex. 5] | 81.4 | response vs control in vivo at 100 mg/kg [3]: 161% |
| Fc1ccc(-c2nc(N3CCN(Cc4ccccc4)CC3)nc3c2CCCC3)cc1 [Ex. 31] | – | inhibition in vivo at 10 mg/kg [1]: 61.1% |
| CN1CCN(c2nc3c(c(-c4cccc(F)c4)n2)CCC3)CC1 [Ex. 21] | 70.5 | – |
| Fc1ccc(-c2nc(N3CCN(c4ccccc4)CC3)nc3c2CCC3)cc1 [Ex. 20] | 35.2 | – |
| c1ccc(CN2CCN(c3nc4c(c(-c5ccccc5)n3)CCC4)CC2)cc1 [Ex. 18] | 54.4 | – |
| O=C(CCCN1CCN(c2nc3c(c(-c4ccc(F)cc4)n2)CCC3)CC1)c1ccc(F)cc1 [Ex. 46, 2-[4-[3-(4-fluorobenzoyl)propyl]-1-piperazinyl]-4-(4-fluorophenyl)-6,7-dihydro-5H-cyclopentapyrimidine] | 100 | – |
| Fc1ccc(-c2nc(N3CCN(c4ccccn4)CC3)nc3c2CCC3)cc1 [Ex. 39] | 55.6 | – |
| CC1CCc2nc(N3CCN(C)CC3)nc(-c3ccc(F)cc3)c2C1 (stereo not shown) [Ex. 41] | 60.8 | – |
| CC1CCc2nc(N3CCNCC3)nc(-c3ccc(F)cc3)c2C1 (stereo not shown) [Ex. 40] | 64.5 | – |
| CN1CCN(c2nc3c(c(-c4ccccc4)n2)CCCC3)CC1 [Ex. 25] | – | inhibition in vivo at 10 mg/kg [1]: 67.2%; response vs control in vivo at 100 mg/kg [3]: 142%; Inhibitory ratio (% inhibition of reserpine-induced hypothermia) [2]: 63% |
